Experimental data published in PubChem BioAssay (NCI).
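Step 1: Grow cells in 96-well plates. Step 2: Expose to compound for 48 hours at 5 concentrations. Step 3: Interpolate endpoints linearly; if unreached, use highest concentration. Here, GI50 denotes the concentration required for 50% inhibition of growth. Definition used: TGI = concentration required for complete inhibition of growth.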

Assays:
Assay in all cases: NCI anticancer screen, dose series, 48 h
[1] = test system: 786-0 renal
[2] = test system: A498 renal
[3] = test system: A549 NSCLC
[4] = test system: ACHN renal
[5] = test system: BT-549 breast
[6] = test system: CAKI-1 renal
[7] = test system: CCRF-CEM leukemia
[8] = test system: COLO 205 colon
[9] = test system: DU-145 prostate
[10] = test system: EKVX NSCLC
[11] = test system: HCC-2998 colon
[12] = test system: HCT-116 colon
[13] = test system: HCT-15 colon
[14] = test system: HL-60(TB) leukemia
[15] = test system: HOP-62 NSCLC
[16] = test system: HOP-92 NSCLC
[17] = test system: HS 578T breast
[18] = test system: HT29 colon
[19] = test system: IGROV1 ovarian
[20] = test system: K-562 leukemia
[21] = test system: KM12 colon
[22] = test system: LOX IMVI melanoma
[23] = test system: M14 melanoma
[24] = test system: MALME-3M melanoma
[25] = test system: MCF7 breast
[26] = test system: MDA-MB-231 breast
[27] = test system: MDA-MB-435
[28] = test system: MOLT-4 leukemia
[29] = test system: NCI-H226 lung
[30] = test system: NCI-H23 lung
[31] = test system: NCI-H460 lung
[32] = test system: NCI-H522 lung
[33] = test system: NCI/ADR-RES ovarian
[34] = test system: OVCAR-3 ovarian
[35] = test system: OVCAR-4 ovarian
[36] = test system: OVCAR-5 ovarian
[37] = test system: OVCAR-8 ovarian
[38] = test system: PC-3 prostate
[39] = test system: RPMI-8226 leukemia
[40] = test system: RXF 393 renal
[41] = test system: SF-268 CNS
[42] = test system: SF-295 CNS
[43] = test system: SF-539 CNS
[44] = test system: SK-MEL-2 melanoma
[45] = test system: SK-MEL-28 melanoma
[46] = test system: SK-MEL-5 melanoma
[47] = test system: SK-OV-3 ovarian
[48] = test system: SN12C renal
[49] = test system: SNB-19 CNS
[50] = test system: SNB-75 CNS
[51] = test system: SR leukemia
[52] = test system: SW-620 colon
[53] = test system: T-47D breast
[54] = test system: TK-10 renal
[55] = test system: U251 CNS
[56] = test system: UACC-257 melanoma
[57] = test system: UACC-62 melanoma
[58] = test system: UO-31 renal

SMILES: COc1ccc(C2C(C#N)=C(/N=C/c3ccc(Cl)cc3)Oc3c2sc2c(C)cccc32)cc1 (stereo unspecified)
- GI50 [1]: 4.34 µM
- TGI [1]: 28.2 µM
- GI50 [2]: 12.6 µM
- TGI [2]: 27.5 µM
- GI50 [3]: 2.22 µM
- TGI [3]: 28.9 µM
- GI50 [4]: 3.94 µM
- TGI [4]: 17.8 µM
- GI50 [5]: 1.21 µM
- TGI [5]: 18.8 µM
- GI50 [6]: 4.03 µM
- TGI [6]: 22.3 µM
- GI50 [7]: 3.01 µM
- TGI [7]: > 100 µM
- GI50 [8]: 2.59 µM
- TGI [8]: 6.96 µM
- GI50 [9]: 3.2 µM
- TGI [9]: 14 µM
- GI50 [10]: 3.87 µM
- TGI [10]: 17.3 µM
- GI50 [11]: 1.91 µM
- TGI [11]: 5.99 µM
- GI50 [12]: 1.55 µM
- TGI [12]: 13.4 µM
- GI50 [13]: 0.731 µM
- TGI [13]: 10.5 µM
- GI50 [14]: 0.433 µM
- TGI [14]: 2.94 µM
- GI50 [15]: 4.07 µM
- TGI [15]: 19.7 µM
- GI50 [16]: 1.69 µM
- TGI [16]: 18.1 µM
- GI50 [17]: 2.44 µM
- TGI [17]: 19.1 µM
- GI50 [18]: 2.76 µM
- TGI [18]: 8.76 µM
- GI50 [19]: 2.27 µM
- TGI [19]: 17.4 µM
- GI50 [20]: 0.404 µM
- TGI [20]: > 100 µM
- GI50 [21]: 1.4 µM
- TGI [21]: 12.6 µM
- GI50 [22]: 1.89 µM
- TGI [22]: 13.4 µM
- GI50 [23]: 1.59 µM
- TGI [23]: 10.8 µM
- GI50 [24]: 2.28 µM
- TGI [24]: 19.8 µM
- GI50 [25]: 0.549 µM
- TGI [25]: 21.4 µM
- GI50 [26]: 2.73 µM
- TGI [26]: 13.8 µM
- GI50 [27]: 0.312 µM
- TGI [27]: 0.993 µM
- GI50 [28]: 3.37 µM
- TGI [28]: 28.7 µM
- GI50 [29]: 6.02 µM
- TGI [29]: 24.3 µM
- GI50 [30]: 2.34 µM
- TGI [30]: 12.6 µM
- GI50 [31]: 1.71 µM
- TGI [31]: 12.8 µM
- GI50 [32]: 0.247 µM
- TGI [32]: 0.858 µM
- GI50 [33]: 0.668 µM
- TGI [33]: 4.49 µM
- GI50 [34]: 0.753 µM
- TGI [34]: 3.69 µM
- GI50 [35]: 3.4 µM
- TGI [35]: 25.9 µM
- GI50 [36]: 2.81 µM
- TGI [36]: 12.4 µM
- GI50 [37]: 2.87 µM
- TGI [37]: 11.4 µM
- GI50 [38]: 2.01 µM
- TGI [38]: 18.1 µM
- GI50 [39]: 3.21 µM
- TGI [39]: 18.5 µM
- GI50 [40]: 2.12 µM
- TGI [40]: 10.5 µM
- GI50 [41]: 4.28 µM
- TGI [41]: 21.2 µM
- GI50 [42]: 1.19 µM
- TGI [42]: 10.3 µM
- GI50 [43]: 1.31 µM
- TGI [43]: 3.54 µM
- GI50 [44]: 2.17 µM
- TGI [44]: 13 µM
- GI50 [45]: 1.51 µM
- TGI [45]: 18.8 µM
- GI50 [46]: 1.44 µM
- TGI [46]: 13.1 µM
- GI50 [47]: 3.12 µM
- TGI [47]: 17.5 µM
- GI50 [48]: 2.79 µM
- TGI [48]: 12.7 µM
- GI50 [49]: 3.57 µM
- TGI [49]: 16.7 µM
- GI50 [50]: 3.08 µM
- TGI [50]: 23.2 µM
- GI50 [51]: 0.413 µM
- TGI [51]: 20.6 µM
- GI50 [52]: 1.11 µM
- TGI [52]: 16.3 µM
- GI50 [53]: 1.77 µM
- TGI [53]: 23.1 µM
- GI50 [54]: 12.5 µM
- TGI [54]: 37.1 µM
- GI50 [55]: 2.96 µM
- TGI [55]: 14 µM
- GI50 [56]: 12.3 µM
- TGI [56]: 31.5 µM
- GI50 [57]: 0.515 µM
- TGI [57]: 10.2 µM
- GI50 [58]: 1.97 µM
- TGI [58]: 16 µM
